pIC50: −log10 of the molar value.
Assays:
[1] = test system: diacylglycerol acyltransferase (DGAT); assay: DGAT enzyme assay, rat liver microsomes, [14C]triglyceride by TLC or 1-step extraction; conditions: for Production of [14C]TAG: 0.8% solvent in reaction
Experimental: Rats were euthanized using CO2 affixation; their livers were immediately removed and placed in ice-cold microsome buffer (MC buffer) consisting of 125 mM sucrose, 3.0 mM imidazole, pH 7.4. Livers were cut into approximately 10 pieces, placed into 20 mL of ice cold MC buffer per liver and homogenized on ice in a glass Dounce power homogenizer using 10 up-and-down strokes. Homogenates were centrifuged at 1700 rpm in a Beckman JA-14 rotor for 10 minutes at 4° C. The supernatant was removed and placed on ice. The pellet was resuspended in 4.0 mL MC buffer per liver, rehomogenized as described above, and centrifuged at 1700 rpm in a Beckman JA-14 rotor for 10 minutes at 4° C. This supernatant was combined with the previous supernatant and centrifuged at 13,000 rpm in a Beckman JA-14 rotor for 20 minutes at 4° C. The supernatant was transferred to new tubes on ice, and the pellet was discarded. The supernate was centrifuged at 35,000 rpm in a Beckman Ti-70 rotor for 60 minutes at 4° C., and the resulting pellet, containing microsomal membranes, was resuspended in ice cold MC buffer using 17 strokes of a glass Dounce power homogenizer. Microsomal protein concentrations were determined by the Dc Protein Assay, and BSA was used to generate the standard curve. Microsomes were diluted to final protein concentration of 10 to 20 mg/mL. Microsomes were aliquoted into 1.0-mL tubes and stored in a liquid N2 cryofreezer.
DGAT Assay Buffer (DAB): 0.25 M sucrose, 1.0 mM EDTA, pH 8.0, 150 mM Tris-HCl, pH 7.4, and 1.25 mg/mL fatty acid free BSA.
Compounds were dissolved in DMSO and diluted to make 10× with DAB (10×compound) and kept at room temperature until the assay was performed.
Frozen aliquots of microsomes (10-20 mg/mL total protein) were thawed on ice and diluted to make a 5× working stock at the indicated concentrations with MC buffer and stored on ice until use.
The DGAT assay reaction was performed as follows: 5 μL of 10× compound was added to Perkin Elmer thin-walled reaction tubes followed by 35 μL of DGAT substrate mixture and vortexed. The reaction was started by the addition of 10 μL of the diluted 5× microsomes, vortexed, and incubated in a Perkin Elmer 9600 thermocycler for the indicated times and temperatures.
Reactions were stopped by the addition of 10 μL of 0.75N HCl. Samples were then spotted onto TLC plates and dried in a gravity convection oven at 70° C. for 30 minutes. Plates were developed in a 27×7.5×26 cm TLC chamber for 60 minutes at room temperature in 102 mL of isooctane:ethyl ether:acetic acid (75:25:2) for triglyceride determination. TLC plates were removed from the chamber, dried in a gravity convection oven at 70° C. for 30 minutes, wrapped in cellophane, and exposed to phosphorimager plates overnight. Phosphorimager plates were scanned on a phosphorimager and images were analyzed using ImageQuant software. A [^14C]glycerol trioleate standard was titrated onto TLC plates for mass determinations. All statistics were performed using Microsoft Excel's analysis software using a two-tailed t-test for means.
Reactions were stopped by the addition of 150 μL of AESSM followed by the addition of 300 μL of n-heptane. The mixture is pipetted 5× to mix and allowed to separate for 5 minutes at room temperature. The entire top phase, n-heptane phase, is removed to new tubes and spotted onto silica TLC plates and processed as described above (see TLC method) or placed into 5-mL scintillation vials containing scintillation cocktail and counted.

[2] = target: T1, diacylglycerol acyltransferase (DGAT); assay: 96-well DGAT mass screen assay; format: biochemical, rat; conditions: 22° C., 60 minutes
T1 construct: IC50, DGAT activity; other: Group 1 rat liver microsome preparation; 1-Step/Scintillation; 37° C., 5 minutes; 1-Step/TLC; TLC; other: Group 2 rat liver microsome preparation; 1-Step/Scintillation
Experimental: Plates are loaded onto the robot carousel. […] The robot arm transfers the plate to multidrop 2 for the addition of 20 μL of diluted microsomes and shaken for 1.0 minute at room temperature. The robot arm transfers the plate back to the carousel where it incubates for 1.0 hour at room temperature. The robot arm transfers the plate to multidrop 3 for the addition of 150 μL of AESSM. The robot arm transfers the plate to the multimek to begin the extraction. The reaction volume is transferred to a 96-[…] polypropylene extraction plate on the multimek. The tips are washed 3×100 μL of DI H2O in a reagent reservoir with a continuous flow of DI H2O. The multimek then washes out the 96-well reaction plate with 3×100 μL of n-heptane and transfers the volume to the extraction plate. The multimek mixes the volume in the extraction plate 6×100 μL, and the plate sits for 10 seconds. The tips are washed 3×100 μL of DI H2O in a continuous flow reagent reservoir. One hundred microliters of the top n-heptane phase is transferred to a Flash plate. The robot arm transfers the Flash plate to a carousel fitted with a fume hood, which allows the n-heptane to evaporate for a minimum of 6 hours. The plates are transferred to a plate sealer to be sealed, transferred to the top count scintillation counter, and counted for 1.0 minute. Data are collected and reported to the Trillium based compound management system.

Q: How did the “Production of [14C]TAG” value [1] turn out when CCCCCCCC/C=C\CCCCCCCC(=O)OCCOCC(OCCO)C1OCC(OCCO)C1OCCO (stereo not drawn) [Tween 80] was run?
A: Its value is 20±0.02 pmoles [14C]TAG/mg microbe pro.

Q: How did the “DGAT activity, % of control” value ([1]; 0.35% chloroform) turn out when ClC(Cl)Cl [Chloroform, chloroform] was run?
A: The value was 955%.

Q: For CC(C)=O [Acetone, acetone], which “DGAT activity increase above controls” value ([1]; 10.0% acetone) is on record?
A: The value was 394%.

Q: For CCO [95% EtOH, ethanol], which “DGAT activity increase above control” value ([1]; 0.5% ethanol) is on record?
A: Its value is 121%.

Q: What about the “Production of [14C]TAG” value [1] of the same compound?
A: The value was 104±0.4 pmoles [14C]TAG/mg microbe pro.

Q: What about the “DGAT activity increase above controls” value ([1]; 4.0% ethanol) of the same compound?
A: The value was 180%.

Q: Which results are given for Cc1ccc2c(c1)Oc1ccc(NC(=O)c3ccc(O)cc3)cc1C(=O)N2C [N-(7,10-dimethyl-11-oxo-10,11-dihydro-dibenzo[b,f][1,4]oxazepin-2-yl)-4-hydroxy-benzamide]?
A: pIC50 ([2]; manually extracted samples): 5.77; pIC50 ([2]; plate 1, 96-well mass screen extraction): 5.82; pIC50 ([2]; plate 2, 96-well mass screen extraction): 5.90; pIC50 ([1]; read-out: IC50, DGAT activity, Group 1 rat liver microsome preparation, 1-Step/Scintillation, 37° C., 5 minutes): 5.78; pIC50 ([1]; read-out: IC50, DGAT activity, Group 1 rat liver microsome preparation, 1-Step/TLC, 37° C., 5 minutes): 6.02; pIC50 ([1]; read-out: IC50, DGAT activity, Group 1 rat liver microsome preparation, TLC, 37° C., 5 minutes): 5.97; pIC50 ([1]; read-out: IC50, DGAT activity, Group 2 rat liver microsome preparation, 1-Step/Scintillation, 37° C., 5 minutes): 5.95; pIC50 ([1]; read-out: IC50, DGAT activity, Group 2 rat liver microsome preparation, 1-Step/TLC, 37° C., 5 minutes): 5.94; pIC50 ([1]; read-out: IC50, DGAT activity, Group 2 rat liver microsome preparation, TLC, 37° C., 5 minutes): 5.82; pIC50 ([1]; read-out: IC50, DGAT activity, Group 3 rat liver microsome preparation, 1-Step/Scintillation, 37° C., 5 minutes): 5.69; pIC50 ([1]; read-out: IC50, DGAT activity, Group 3 rat liver microsome preparation, 1-Step/TLC, 37° C., 5 minutes): 5.64; pIC50 ([1]; read-out: IC50, DGAT activity, Group 3 rat liver microsome preparation, TLC, 37° C., 5 minutes): 5.76; pIC50 ([1]; read-out: IC50, DGAT activity, Group 4 rat liver microsome preparation, 1-Step/Scintillation, 37° C., 5 minutes): 5.96; pIC50 ([1]; read-out: IC50, DGAT activity, Group 4 rat liver microsome preparation, 1-Step/TLC, 37° C., 5 minutes): 6.14; pIC50 ([1]; read-out: IC50, DGAT activity, Group 4 rat liver microsome preparation, TLC, 37° C., 5 minutes): 6.04; pIC50 ([1]; read-out: IC50, DGAT inhibition, 0.8% ethanol and TLC): 5.59; pIC50 ([1]; read-out: IC50, DGAT inhibition, 0.8% ethanol extracted (1-step) and run on TLC): 5.62; pIC50 ([1]; read-out: IC50, DGAT inhibition, […] acetone:chloroform (8:2) and TLC): 5.70; pIC50 ([1]; read-out: IC50, DGAT inhibition, […] acetone:chloroform (8:2) extracted (1-step) and run on TLC): 5.60

Q: Which results are given for C[S+](C)[O-] [DMSO]?
A: effect on DGAT activity ([1]; 37° C. and 22° C.): decreases DGAT activity in a linear manner; DMSO concentration at which DGAT assay showed significant changes ([1]; 37° C. and 22° C., p<0.05): 4.5%
